Results taken from patent US20150125506A1, “RETINAL PIGMENT EPITHELIAL CELLS DIFFERENTIATED FROM EMBRYONIC STEM CELLS WITH NICOTINAMIDE AND ACTIVIN A” (HADASIT MEDICAL RESEARCH SERVICES AND DEVELOPMENT LTD., priority 2007, published 2015).

Key:
Type in all cases: cell-based, human
[1] = test system: hESCs; assay: Differentiation of hESC free-floating clusters into pigmented (RPE) cells, counted as pigmented clusters and cells; conditions: for percentage of clusters that included pigmented cells / percentage of pigmented cells from the total number of cells: NA with activin A vs NA without activin A; for appearance of clusters harboring pigmented cells: factor added in presence of NA
Method: Human ESC (HES1 cell line) and hESCs engineered by lentiviral vector to constitutively express eGFP [Gropp M, Itsykson P, Singer O, Ben-Hur T, Reinhartz E, Galun E, and Reubinoff B E. Stable genetic modification of human embryonic stem cells by lentiviral vectors. Molecular Therapy 7:281-7 (2003)] were cultured on human foreskin fibroblasts feeder layers in KO medium (KOM) consisting of 86% KO-DMEM (Gibco, Invitrogen, Gaithersburg, Md.), 14% KOSR (Gibco), 1 mM glutamine, 1% nonessential amino acids, 50 units/ml penicillin (Gibco), 50 μg/ml streptomycin, (Gibco) and 4 ng/ml bFGF (R&D Systems, Inc., Minneapolis, Minn.). hES cells were weekly passaged with type IV collagenase (1 mg/ml; Gibco) and plated onto a fresh feeder layer. A week before induction of differentiation, the cells were passaged by dissociation into nearly a single-cell suspension with Ca/Mg^++-free PBS supplemented with 0.05% EDTA (Biological Industries, Beit Haemek, Israel) and were re-plated on the feeders.
(§1) Six-eight days after plating the hES cells that were dissociated into single cells as above; they were removed from the feeders by treatment with type IV collagenase. The clumps were cultured for various periods up to 12 weeks in suspension within bacteriological dishes precoated with 0.1% low melting temperature agarose in KO medium (KOM) consisting of 86% KO-DMEM, 14% KOSR, 1 mM glutamine, 1% nonessential amino acids, 50 units/ml penicillin, and 50 μg/ml streptomycin, in the presence or absence of 10 mM nicotinamide (NA) (Sigma, St. Louis, Mo., USA). In some experiments the medium used was Neurobasal™ medium (Gibco) supplemented with N2 supplement (1:100) (Gibco) (NN medium), which was substituted after 1 week with DMEM/F12 (Gibco) supplemented with B27 (1:50) (Gibco).
(§2) Human ESCs were allowed to differentiate as free-floating clusters in KOM as above for up to six weeks in the presence of nicotinamide (NA) 10 mM. After the first week or 2 weeks of differentiation, cultures were supplemented with activin A 20-180 ng/ml (PeproTech Inc, Rocky Hill, N.J.), with TGFβ3 (1 ng/ml; R&D Systems Inc, Minneapolis, Minn.) with TGFβ1 (1 ng/ml-20 ng/ml; R&D Systems Inc) or with SB431542 (5 μM-50 μM, Sigma). Control cultures were supplemented with NA alone.
(§3) Human ESCs in suspension in KOM were also supplemented after one week with the bone morphogenetic protein (BMP) antagonist noggin (700 ng/ml R&D Systems Inc, Minneapolis, Minn.) in the presence and absence of NA, or during the 3rd and 4th weeks with TGFβ (20 ng/ml PeproTech Inc) in the presence of NA and allowed to differentiate up to an age of 6 weeks as free-floating clusters in suspension.

[2] = test system: hESC-derived clusters; assay: Flow cytometry of PSA-NCAM and TRA-1-60 positive cells in hESC-derived clusters
Method: Flow cytometric analysis was performed to determine the number of PSA-NCAM and TRA-1-60 positive cells at different time points within the hESC-derived clusters differentiating with or without nicotinamide supplementation. The clusters were dissociated with 0.04% Trypsin/0.04% EDTA. The single cells were then stained with anti-PSA-NCAM or anti-Tra-1-60 antibodies (both from Chemicon; 1:100), detected with goat anti-mouse immunoglobulins conjugated to FITC (Dako; 1:100), and counterstained with the cell viability dye Propidium iodide (0.005 mg/ml; Sigma) Control cells were incubated only with a secondary antibody. The cell-associated immunoreactivity was analyzed with FACScalibur (Becton Dickinson Immunocytometry Systems), using CellQuest software.

[3] = test system: hESC clusters; assay: RT-PCR and Real-time PCR of marker transcripts in differentiating hESC clusters; conditions: for enhancement of MiTF-A expression by NA supplementation / increase of RPE65 expression with vs without NA: 12 weeks
Method: as §1, §2, §3
Total RNA was extracted from hESCs grown under serum-free conditions (1 week after passage), and at sequential time points up to 8 weeks during culturing of hESC-derived clusters in the presence or absence of 10 mM nicotinamide and with or without supplementation with TGFβ-superfamily growth factors or antagonists. The RNA was isolated using TRIzol reagent (Invitrogen, http://www.invitrogen.com) or TRI-Reagent (Sigma). cDNA synthesis was carried out using Moloney murine leukemia virus reverse transcriptase (M-MLV RT) and random primers, according to the manufacturer's instructions (Promega Corporation, Madison, Wis., http://www. promega.com). Polymerase chain reaction (PCR) was carried out using standard protocols with Taq DNA Polymerase (Gibco-BRL). Amplification conditions were as follows: denaturation at 94° C. for 15 seconds, annealing at 55° C. for 30 seconds, and extension at 72° C. for 45 seconds. The number of cycles varied between 18 and 40, depending on particular mRNA abundance. Primer human sequences for identifying human gene transcripts (forward and reverse 5′-3′) and the length of the amplified products were as follows (SEQ ID NOs. 1-12):
For Real-time PCR the levels of transcripts were monitored using TaqMan primers and probes that were derived from the commercially available TaqMan® Assays-on-Demand Gene Expression Products (Applied Biosystems, Foster City, Calif.): Oct4, ID Hs01895061; Musashi, ID Hs01045894; Pax6, ID Hs00240871; Six3, ID Hs00193667; Rx1, ID Hs00429459; Chx10, ID Hs01584048; MiTF-A, ID Hs01115553; MiTF-total, ID Hs01115557; Bestrophin, ID Hs00188249; RPE65, ID Hs00165642; Sox10, ID Hs00366918; Crx, ID Hs00230899. Quantitative PCR analysis was performed using an ABI Prism 7000HT and ABI Prism 7900HT Sequence Detection Systems and TaqMan® Universal PCR Master Mix (Applied Biosystems) according to the manufacturer's protocol. Housekeeping gene β-glucuronidase (GusB, assay ID Hs99999908) was selected as an internal reference for normalization in the Real-Time RT-PCR quantification analysis and the relative expression level of each gene is shown as a relative value when the expression level of day 0 (or untreated cells) was set at 1. Amplification reactions were carried out in duplicates or triplicates according to manufacturer's protocol (Applied Biosystems).

[4] = test system: hESC clusters; assay: Indirect immunofluorescent staining of differentiated cells within clusters
Method: To characterize the immunophenotype of cells within the aggregates, the clusters cultivated for 2, 4, 6 or 8 weeks were gently dissociated either with 0.04% trypsin/0.04% EDTA or with Papain Dissociation System (Worthington Biochemical, Lakewood, N.J.), and the resulting small clumps and single cells were plated in KO medium supplemented with NA on poly-D-lysine (30-70 kDa, 10-20 μg/ml) alone or supplemented with either laminin (4 μg/ml) or fibronectin (10-20 μg/ml; all from Sigma, St. Louis, http://www.sigmaaldrich.com). The cells were fixed with 4% paraformaldehyde after 2 hours and examined for the expression of nestin (1:200), polysialic acid NCAM (PSA-NCAM) (1:100), Musashi (1:200; all from Chemicon, Temecula, from CA), Pax6 (DSHB, 1:100 or Chemicon, 1:250), Otx2 (Chemicon, 1:200), MiTF (Lab Vision Corporation, Fremont, Calif.; mouse IgG1, 1:50).

[5] = 8 weeks of differentiation in presence of NA
[6] = 2 weeks old clusters, RT-PCR, with vs without NA
[7] = 6 weeks of differentiation, KOM, with vs without NA, Real-time RT-PCR
[8] = at 4 weeks, NA-treated clusters
[9] = Q-PCR time course, 2 weeks activin A treatment with NA vs NA alone
[10] = TGFβ3 added in presence of NA, 6 weeks

NC(=O)c1cccnc1 [NA, nicotinamide]
percentage of clusters that included pigmented cells ([1]; 4 weeks): 17.7±3.2% | percentage of pigmented cells from the total number of cells ([1]; 4 weeks): 2.4±1.2% | percentage of cells that were pigmented within clusters [1, 5]: 5.7±1.0% | percentage of clusters that had pigmented areas ([1]; after 8 weeks of differentiation, KO medium with NA 10 mM): 72.9±2.5% | expression of TRA-1-60 (surface marker of undifferentiated cells) ([2]; FACS time course, NA treated vs untreated): declined more rapidly | percentage of cells expressing PSA-NCAM (FACS) ([2]; after 4 weeks of differentiation with NA): 81.4±6.3% | expression of activin receptor ACTRIB [3, 6]: high | expression of activin receptor ACTRIIB [3, 6]: high | increase of MiTF-A expression in presence of NA [3, 7]: nearly two-fold | increase of RPE65 expression in presence of NA [3, 7]: ~30 fold | augmentation of RPE65 expression ([3]; 8-week time course, NA-treated vs spontaneously differentiating clusters): > 100 folds | enhancement of MiTF-A expression by NA supplementation ([3]; KOM): approximately 3 fold | increase of RPE65 expression with vs without NA ([3]; KOM): approximately doubled | expression of Chx10 ([3]; NA treatment vs no NA): increased | expression of Crx (photoreceptor progenitor marker) ([3]; NA treatment vs no NA): increased | expression of Rx1 transcripts ([3]; NA treatment vs no NA): increased | expression of Six3 transcripts ([3]; NA treatment vs no NA): increased | expression of Bestrophin transcripts ([3]; NA-treated cultures vs spontaneously differentiating hESC clusters): higher | enhancement of MiTF-A expression by NA supplementation ([3]; NN/DMEM medium): approximately 2.5 fold | increase of RPE65 expression with vs without NA ([3]; NN/DMEM medium): ~6 fold | expression of Pax6 transcripts ([3]; after 2-6 weeks of differentiation, with vs without NA): significantly increased | expression of Otx2 transcripts ([3]; after 2 weeks of differentiation, with vs without NA): significantly increased | expression of Musashi transcripts ([3]; after 4-6 weeks of differentiation, with vs without NA): significantly increased | expression of transcripts of the early RPE marker MiTF A ([3]; time course in presence of NA): induced after 4 weeks | expression of Oct4 (marker of undifferentiated hESCs) ([3]; time course, with vs without NA): declined more rapidly | expression of Sox10 (melanocyte developmental marker) ([3]; with vs without NA, M51 melanoma cell line as control): not dependent on NA supplementation | percentage of cells expressing the early RPE marker MiTF [4, 5]: 5.4±1.1% | percentage of cells expressing Musashi (immunofluorescence) [4, 8]: 71.4% | percentage of cells expressing PSA-NCAM (immunofluorescence) [4, 8]: 74.2±4.1% | percentage of cells expressing nestin (immunofluorescence) [4, 8]: 55.9±10.1%

NC(=O)c1ccc(-c2nc(-c3ccc4c(c3)OCO4)c(-c3ccccn3)[nH]2)cc1 [SB431542]
appearance of pigmented clusters ([1]; 4 weeks, added together with activin A and NA): significantly decreased

bFGF: basic FGF
appearance of clusters harboring pigmented cells [1]: abolished

TGFβ1: transforming growth factor-β protein subtype, member of the TGFβ superfamily
appearance of clusters harboring pigmented cells [1]: significantly enhanced

activin A
percentage of clusters that included pigmented cells ([1]; 4 weeks): 50.7±6.5% | percentage of pigmented cells from the total number of cells ([1]; 4 weeks): 9.9±1.4% | concentration with optimal augmenting effect on percentage of pigmented cells and expression of Bestrophin and RPE65 ([1]; activin A studied at various concentrations, in presence of NA): 140 ng/mL | pigmentation of clusters of pigmented cells ([1]; developed in presence of activin A and NA vs NA alone): darker | increase of the percentage of pigmented cells in presence of activin A ([1]; in presence of NA): 5-6 folds | expression of MiTF-A with activin A supplementation ([3]; 6 weeks, in presence of NA, vs NA alone): not affected | increase of RPE65 expression by activin A treatment ([3]; 6 weeks, in presence of NA, vs NA alone (FIG. 4D)): over five-fold | increase of Bestrophin expression by activin A treatment ([3]; 6 weeks, in presence of NA, vs NA alone (FIG. 4E)): over four-fold | expression of RPE marker Bestrophin [3, 9]: significantly increased | expression of retinal progenitor marker Chx10 [3, 9]: significantly increased | expression of retinal progenitor marker Rx1 [3, 9]: significantly increased | expression level of total MiTF-isoforms ([3]; at 4 weeks of differentiation, activin A with NA vs NA alone): increased | increase of bestrophin expression in presence of activin A ([3]; in presence of NA): about 10 folds

B1: TGFβ3: transforming growth factor-β protein subtype, member of the TGFβ superfamily (protein, UniProt P10600 301-412, looked up)
Transforming growth factor …: ALDTNYCFRNLEENCCVRPLYIDFRQDLGWKWVHEPKGYYANFCSGPCPYLRSADTTHSTVLGLYNTLNPEASASPCCVPQDLEPLTILYYVGRTPKVEQLSNMVVKSCKCS
modifications: Transforming growth factor beta-3
notes: transforming growth factor-β protein subtype, member of the TGFβ superfamily
expression levels of RPE65 [3, 10]: but not of RPE65 | expression levels of transcripts of MiTF-A [3, 10]: significantly augmented

B2: noggin: bone morphogenetic protein (BMP) antagonist (protein, UniProt Q13253 28-232, looked up)
Noggin: QHYLHIRPAPSDNLPLVDLIEHPDPIFDPKEKDLNETLLRSLLGGHYDPGFMATSPPEDRPGGGGGAAGGAEDLAELDQLLRQRPSGAMPSEIKGLEFSEGLAQGKKQRLSKKLRRKLQMWLWSQTFCPVLYAWNDLGSRFWPRYVKVGSCFSKRSCSVPEGMVCKPSKSVHLTVLRWRCQRRGGQRCGWIPIQYPIISECKCSC
differentiation of hESC clusters into pigmented RPE cells ([1]; noggin, absence of NA, 6 weeks): blocked | differentiation into pigmented cells ([1]; noggin, medium also supplemented with NA, 6 weeks): blocked | expression of MiTF-A ([3]; noggin, both presence and absence of NA, Real-Time RT-PCR): significantly reduced
